According to patent US20230203016A1, “DICARBOXYLIC ACID BISAMIDE DERIVATIVES, USE THEREOF, PHARMACEUTICAL COMPOSITION BASED THEREON AND METHODS FOR PRODUCING DICARBOXYLIC ACID BISAMIDE DERIVATIVES” (TREAMID THERAPEUTICS GMBH, priority 2013, published 2023):

Columns and labels:
[1] = Stability constants of complexes with zinc ions by pH-metric titration, Bjerrum method; type: physicochemical; details: aqueous solution, CL = 0.02M, M^z+/L = 1:6, ion strength 0.5 (KNO3), 22° C.; for The first stability constant, lgK1 (zinc ions) / The second stability constant, lgK2 (zinc ions) / The third stability constant, lgK3 (zinc ions): Table 5; for The first stability constant of complexes with 1:1 compositions, lgK1, Zn (II): Table 4
Protocol: (§1) Initial 0.05 M solutions of M^z+ metal ions were prepared from nitrates of zinc (Zn(NO3)2·6H2O), calcium (Ca(NO3)2·4H2O), copper sulfate (CuSO4·5H2O), magnesium chloride (MgCl2·6H2O) and Mohr's salt ((NH4)2Fe(SO4)2·6H2O). Standardization of the initial solutions of M^z+ salts was performed by a complexometric titration method with trilon B (M^z+=Zn^2+, Cu^2+, Mg^2+, Ca^2+) and a spectrophotometric method at 490 nm by using o-phenanthroline (M^z+=Fe^2+).
(§2) Given the parameters, such as the amount of a studied compound required for potentiometric titration, a testing procedure and a constant calculation method, the Bjerrum method is most suitable and informative [Yu. P. Galaktionov, M. A. Chistyakov, V. G. Sevastiyanov, etc., “Step Stability Constants of Group IIIB Metal and Lanthanide Complexes with Acetylacetone in Aqueous Solution and the Solubility Products of Metal Triacetylacctonates”, Journal of physical chemistry, 2004, v. 78, No. 9, pp. 1596-1604].
(§3) The method is based on the view that the process of complex formation is stepwise. A main assumption of the Bjerrum method is an assumption about the formation of only […] complexes. The process of complex formation can be schematically described as follows:
(§4) According to the Bjerrum method, a studied compound is titrated with a NaOH solution twice: in the absence of and in the presence of a metal ion. The titration is performed under a high constant concentration of an indifferent electrolyte, which provides the solution with a constant ionic strength.
(§5) For these purposes, highly soluble salts are used, for example, sodium and potassium salts. Concentration step stability constants (Kn) are determined from experiments. In addition, the method provides information concerning the composition of a formed complex, in particular, the maximum possible number of bound ligands (n).
(§6) Traditional procedure for determining step stability constants for complexes by the Bjerrum method of pH-metric titration was performed as follows.
(§7) A sample of a studies compound (3·10^−4 mol) was dissolved in 14.0 ml of a 0.5M aqueous KNO3 solution. One ml of a 0.05M aqueous solution of an M^z+ salt was added under vigorous stirring. The systems were studied with a M^z+/L ratio of 1:6. The pH value of a solution was fixed for coexisting ligands and metal ions. The mixture was titrated with a 0.05M NaOH aqueous solution within a broad range of pH values (up to pH 11.0-11.5). The amount of the used titrant (VNaOH, ml) and the pH value of the solution were registered in each titration point. At the moment when a residue formed, the solution became turbid, or the color of the solution changed, the pH value, the nature of the change and the amount of NaOH spent for the titration were registered. The step of titration was 0.25 ml. The value of lgKn was determined by the Bjerrum curve n=f(pA) for each semi-integer value of the function of complex formation n=n−0.5.
Today the Bjerrum method is frequently used to study complex formation processes. This method provides for the determination of two parameters: the concentration of a free ligand under equilibrium conditions ([L^−]) and the function of complex formation n which is the average number of ligands involved in the complex. Thus, using experimental data, the value [L^−] can be calculated for each time point of the titration (in particular, −lg[L^−]=pA), and n can be calculated by equation (1). When a ligand has several dissociating groups, the KL value in equation (1) matches the value of the dissociation constant with the largest pk value.
The Kn value is found from the Bjerrum curve (curve of the complex formation) n=f(pA) plotted according to equation (2) for each semi-integer value (n=n−0.5) of the function of the complex formation. Thus, the step stability constant will be equal to the reciprocal concentration of a free ligand at a point of n=n−0.5. […]

[2] = First stability constant of complexes with Fe (II) by pH-metric titration, Bjerrum method; type: physicochemical; details: aqueous solution, CL = 0.02M; M^z+/L = 1:6; ion strength 0.5 (KNO3), 22° C.
Protocol: as §1, §2, §3, §4, §5, §6
(§8) A sample of a studies compound (3·10^−4 mol) was dissolved in 14.0 ml of a 0.5M aqueous KNO3 solution. One ml of a 0.05M aqueous solution of an M^z+ salt was added under vigorous stirring. The systems were studied with a M^z+/L ratio of 1:6. The pH value of a solution was fixed for coexisting ligands and metal ions. […] The value of lgKn was determined by the Bjerrum curve n=f(pA) for each semi-integer value of the function of complex formation n=n−0.5.
(§9) Today the Bjerrum method is frequently used to study complex formation processes. […] Thus, using experimental data, the value [L^−] can be calculated for each time point of the titration (in particular, −lg[L^−]=pA), and n can be calculated by equation (1). […]

[3] = First stability constant of complexes with Fe (III) by pH-metric titration, Bjerrum method; type: physicochemical; details: aqueous solution, CL = 0.02M; M^z+/L = 1:6; ion strength 0.5 (KNO3), 22° C.
Description: as §2, §3, §4, §5, §6, §7, §9

[4] = First stability constant of complexes with magnesium ions by pH-metric titration, Bjerrum method; type: physicochemical; details: aqueous solution, CL = 0.02M; M^z+/L = 1:6; ion strength 0.5 (KNO3), 22° C.
Protocol: as §1, §2, §3, §4, §5, §6, §8, §9

[5] = First stability constant of complexes with calcium ions by pH-metric titration, Bjerrum method; type: physicochemical; details: aqueous solution, CL = 0.02M; M^z+/L = 1:6; ion strength 0.5 (KNO3), 22° C.
Protocol: as §1, §2, §3
According to the Bjerrum method, a studied compound is titrated with a NaOH solution twice: in the absence of and in the presence of a metal ion. […]
For these purposes, highly soluble salts are used, for example, sodium and potassium salts. Concentration step stability constants (Kn) are determined from experiments. […]
A sample of a studies compound (3·10^−4 mol) was dissolved in 14.0 ml of a 0.5M aqueous KNO3 solution. […] The value of lgKn was determined by the Bjerrum curve n=f(pA) for each semi-integer value of the function of complex formation n=n−0.5.
as §9

[6] = First stability constant of complexes with copper ions by pH-metric titration, Bjerrum method; type: physicochemical; details: aqueous solution, CL = 0.02M; M^z+/L = 1:6; ion strength 0.5 (KNO3), 22° C.
Protocol: as §1, §2, §3, §4, §5, §6, §8, §9

[7] = Acid dissociation constants (pk) by pH-potentiometric titration, Schwarzenbach method; type: physicochemical; details: aqueous solution, C = 0.02M, ionic strength 0.5 (KNO3), 22° C.; for pk1: titration with 0.05M HCl aqueous solution (footnote 1); for pk2: titration with 0.05M aqueous NaOH solution (footnote 2)
Protocol: An important property of a ligand to form a complex is dissociation constants (pkn) of studied compounds in an aqueous solution. The pkn values are determined by a potentiometric titration method. The calculation of dissociation constants are performed by the Schwarzenbach method [Grinberg A. A., “An introduction to the chemistry of complex compounds”, fourth ed., Amend., L., Khimiya, 1971].
Titration was performed on an apparatus by using a laboratory ionomer I 120.1. A designed galvanic cell consisted of two electrodes, in particular an indicator glass electrode and a silver chloride comparison electrode. The pH value was measured with an accuracy of ±0.2.
A traditional method for determining acid dissociation step constants (k1, . . . , kn) by using pH-metric titration is the Schwarzenbach method.
A sample of a studied compound (3·10^−4 mol) was dissolved in 15.0 ml of a 0.5M aqueous KNO3 solution. The obtained […] solution was titrated with a 0.05M aqueous solution of NaOH or HCl under stirring. The amount (V, ml) of the used titrant and the pH value of the solution were registered in each titration point. A titration step was equal to 0.5 ml, and 0.2 ml in the proximity to the equivalency point. Titration was continued until the pH value of the solution reached 11.0 to 11.5. The pH value of the solution corresponding to a=0.5 and/or a=1.5 was determined by the titration curve pH=f(a), and the amount of added gram-equivalents of the titrant was calculated in terms of 1 mole of a titrated compound.

[8] = Study of the chelating ability (summary statements on complex formation); type: physicochemical; details: statement in words

| SMILES | The first stability constant, lgK1 (zinc ions) [1] | The second stability constant, lgK2 (zinc ions) [1] | The third stability constant, lgK3 (zinc ions) [1] | The first stability constant of complexes with 1:1 compositions, lgK1, Fe (II) [2] | The first stability constant of complexes with 1:1 compositions, lgK1, Fe (III) [3] | The first stability constant of complexes with 1:1 compositions, lgK1, Zn (II) [1] | The first stability constant of complexes with 1:1 compositions, lgK1, Mg (II) [4] | The first stability constant of complexes with 1:1 compositions, lgK1, Ca (II) [5] | The first stability constant of complexes with 1:1 compositions, lgK1, Cu (II) [6] | pk1 [7] | pk2 [7] | melting point | ability to form complexes with or chelate metal ions [8] |
| --- | --- | --- | --- | --- | --- | --- | --- | --- | --- | --- | --- | --- | --- |
| O=C(NCCc1cnc[nH]1)C(=O)NCCc1cnc[nH]1 [Compound 1, N,N′-bis-[2-(1H-imidazol-4-yl)ethyl]ethanediamide] | 4.52 | 4.21 | 3.75 |  |  |  |  |  |  |  |  |  |  |
| O=C(CC(=O)NCCc1cnc[nH]1)NCCc1cnc[nH]1 [Compound 2, N,N′-bis-[2-(1H-imidazol-4-yl)ethyl]propanediamide] | 4.84 | 4.50 | 2.60 | 5.08 | 5.29 | 4.84 | 2.59 | 2.06 | 4.17 | 7.11^(1) | 11.27^(2) |  |  |
| O=C(CCC(=O)NCCc1cnc[nH]1)NCCc1cnc[nH]1 [Compound 3, N,N′-bis-[2-(1H-imidazol-4-yl)ethyl]butanediamide] | 5.40 | 5.05 | 3.80 | 5.95 | 6.59 | 5.40 | 4.36 | 4.57 | 5.32 | 6.88 | 11.27^(2) | 230 to 231 °C |  |
| O=C(NCCc1c[nH]cn1)c1cccc(C(=O)NCCc2c[nH]cn2)c1 [Compound 6, Bis-1,3-(N^β-histaminyl)isophthalic acid] | 5.62 | 5.15 | 4.04 |  |  |  |  |  |  |  |  |  |  |
| O=C(CCCC(=O)NCCc1nccs1)NCCc1nccs1 [Compound 8] | 6.25 | 5.80 | 5.05 |  |  |  |  |  |  |  |  |  |  |
| O=C(CCCC(=O)NCCc1ncc[nH]1)NCCc1ncc[nH]1 [Compound 10] | 5.50 | 5.24 | 4.48 |  |  |  |  |  |  |  |  |  |  |
| O=C(CCCC(=O)NCCc1cnc[nH]1)NCCc1cnc[nH]1 [Compound 11, N,N′-bis-[2-(1H-imidazol-4-yl)ethyl]pentanediamide] | 5.05 | 4.70 | 2.87 | 6.27 | 6.60 | 5.05 | 2.82 |  | 4.39 | 7.16^(1) | 11.89^(2) | 166 to 168 °C | capable of forming complexes with metal ions |
| O=C(CCCCC(=O)NCCc1cnc[nH]1)NCCc1cnc[nH]1 [Compound 12, N,N′-bis-[2-(1H-imidazol-4-yl)ethyl]hexanediamide] | 5.46 | 5.03 | 3.38 | 6.40 | 6.10 | 5.46 | 3.72 | 3.60 | 4.62 | 7.13^(1) | 11.95^(2) | 184 to 186 °C |  |
